One data set concerns MV4-11 cells. As to the kind of experiment: MV4-11 Cell Cytotoxicity Assay. Format: cell-based, human. The following applies: human, MV4-11 cells, CCK-8. The source says:
% Inhibition=100−(D−B)/(S−B)*100%.
S: The absorbance of the maximum (cells with DMSO)
B: The absorbance of the minimum (medium with DMSO)

In the next data set the target is T1, BRD4 (BD1+BD2) (Homo sapiens, UniProt O60885).
T1 construct: 1.8 μg/ml recombinant BRD4 (BD1+BD2 domains) protein
The following applies: read-out: BRD4 Binding Potency.

The next data set addresses HSP90α (Homo sapiens, UniProt P07900). Kind of data set: HSP90α Binding Fluorescent Polarization (FP) Assay. As to conditions: competition with FITC-geldanamycin; read-out: HSP90 Binding Potency. Put shortly:
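Duplicate wells held BSA buffer, FITC-geldanamycin tracer, compound (3-fold dilution plate spanning 40 μM–2.0 nM) and recombinant protein diluted to 28 μg/ml before addition. Polarization read at 30, 60 and 120 min, 25 °C. Background-corrected mP values gave IC50 through a four-parameter inhibitor-response fit.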

Where a name gives a salt, the structure may show the parent alone.

`CCN(CC)CCNC(=O)c1nnc(-c2cc(C(C)C)c(O)cc2O)n1-c1ccc(CN2CCN(CC3CCN(C(=O)C[C@@H]4N=C(c5ccc(Cl)cc5)c5c(sc(C)c5C)-n5c(C)nnc54)CC3)CC2)cc1` [Compound 118, (S)-4-(4-((4-((1-(2-(4-(4-chlorophenyl)-2,3,9-trimethyl-6H-thieno[3,2-f][1,2,4]triazolo[4,3-a][1,4]diazepin-6-yl)acetyl)piperidin-4-yl)methyl)piperazin-1-yl)methyl)phenyl)-N-(2-(diethylamino)ethyl)-5-(2,4-dihydroxy-5-isopropylphenyl)-4H-1,2,4-triazole-3-carboxamide, trifluoroacetic acid] gave an IC50 at 72 h with MV4-11 cells of less than 100 nM. Moreover, the IC50 is less than 100 nM on BRD4 (BD1+BD2) and 100 to 1000 nM on HSP90α.

In the case of `CCN(Cc1ccc(OCCCNC(=O)C[C@@H]2N=C(c3ccc(Cl)cc3)c3c(sc(C)c3C)-n3c(C)nnc32)cc1)Cc1ccc(-n2c(C(=O)NCC(F)(F)F)nnc2-c2cc(C(C)C)c(O)cc2O)cc1` [Compound 102, (S)-4-(4-(((4-(3-(2-(4-(4-chlorophenyl)-2,3,9-trimethyl-6H-thieno[3,2-f][1,2,4]triazolo[4,3-a][1,4]diazepin-6-yl)acetamido)propoxy)benzyl)(ethyl)amino)methyl)phenyl)-5-(2,4-dihydroxy-5-isopropylphenyl)-N-(2,2,2-trifluoroethyl)-4H-1,2,4-triazole-3-carboxamide, trifluoroacetic acid], the IC50 at 72 h with MV4-11 cells is less than 100 nM. The IC50 on BRD4 (BD1+BD2) and on HSP90α was more than 1000 nM in each case.

Turning to `CCc1cc(-c2nnc(O)n2-c2ccc(CC3CCN(CC4CCN(C(=O)C[C@@H]5N=C(c6ccc(Cl)cc6)c6c(sc(C)c6C)-n6c(C)nnc65)CC4)CC3)cc2)c(O)cc1O` [Compound 88, (S)-2-(4-(4-chlorophenyl)-2,3,9-trimethyl-6H-thieno[3,2-f][1,2,4]triazolo[4,3-a][1,4]diazepin-6-yl)-1-(4-((4-(4-(3-(5-ethyl-2,4-dihydroxyphenyl)-5-hydroxy-4H-1,2,4-triazol-4-yl)benzyl)piperidin-1-yl)methyl)piperidin-1-yl)ethan-1-one, formic acid], the IC50 at 72 h with MV4-11 cells was less than 100 nM. In addition, the IC50 on BRD4 (BD1+BD2) and at HSP90α was 100 to 1000 nM each time.

Molecule `CCNC(=O)c1noc(-c2cc(C(C)C)c(O)cc2O)c1-c1ccc(CN2CCN(CC3CCN(C(=O)C[C@@H]4N=C(c5ccc(Cl)cc5)c5c(sc(C)c5C)-n5c(C)nnc54)CC3)CC2)cc1` [Compound 126, (S)-4-(4-((4-((1-(2-(4-(4-chlorophenyl)-2,3,9-trimethyl-6H-thieno[3,2-f][1,2,4]triazolo[4,3-a][1,4]diazepin-6-yl)acetyl)piperidin-4-yl)methyl)piperazin-1-yl)methyl)phenyl)-5-(2,4-dihydroxy-5-isopropylphenyl)-N-ethylisoxazole-3-carboxamide hydrochloride] gave an IC50 at 72 h with MV4-11 cells of less than 100 nM. Further, the IC50 on BRD4 (BD1+BD2) and on HSP90α was 100 to 1000 nM each time.

In the case of `Cc1sc2c(c1C)C(c1ccc(Cl)cc1)=N[C@@H](CC(=O)N1CCC(N3CCN(c4ccc(-n5c(O)nnc5-c5cc(C(C)C)c(O)cc5O)cc4)CC3)CC1)c1nnc(C)n1-2` [Compound 43, 2-((6S)-4-(4-chlorophenyl)-2,3,9-trimethyl-6H-thieno[3,2-f][1,2,4]triazolo[4,3-a][1,4]diazepin-6-yl)-1-(4-(4-(4-(3-(2,4-dihydroxy-5-isopropylphenyl)-5-hydroxy-4H-1,2,4-triazol-4-yl)phenyl)piperazin-1-yl)piperidin-1-yl)ethanone, trifluoroacetic acid], the IC50 at 72 h in the data set on MV4-11 cells is less than 100 nM. The IC50 at BRD4 (BD1+BD2) and on HSP90α was 100 to 1000 nM throughout.

In the data set on MV4-11 cells, `Cc1sc2c(c1C)C(c1ccc(Cl)cc1)=N[C@@H](CC(=O)NCC1CCN(C(=O)C3CCN(Cc4ccc(-n5c(O)nnc5-c5cc(C(C)C)c(O)cc5O)cc4)CC3)CC1)c1nnc(C)n1-2` [Compound 53, (S)-2-(4-(4-chlorophenyl)-2,3,9-trimethyl-6H-thieno[3,2-f][1,2,4]triazolo[4,3-a][1,4]diazepin-6-yl)-N-((1-(1-(4-(3-(2,4-dihydroxy-5-isopropylphenyl)-5-hydroxy-4H-1,2,4-triazol-4-yl)benzyl)piperidine-4-carbonyl)piperidin-4-yl)methyl)acetamide, trifluoroacetic acid] had an IC50 at 72 h of less than 100 nM. Further, the IC50 at BRD4 (BD1+BD2) and at HSP90α was 100 to 1000 nM each time.

Regarding `Cc1sc2c(c1C)C(c1ccc(Cl)cc1)=N[C@@H](CC(=O)NCCc1ccc(CN3CCC(Cc4ccc(-n5c(C(=O)NCC(F)(F)F)nnc5-c5cc(C(C)C)c(O)cc5O)cc4)CC3)cc1)c1nnc(C)n1-2` [Compound 95, (S)-4-(4-((1-(4-(2-(2-(4-(4-chlorophenyl)-2,3,9-trimethyl-6H-thieno[3,2-f][1,2,4]triazolo[4,3-a][1,4]diazepin-6-yl)acetamido)ethyl)benzyl)piperidin-4-yl)methyl)phenyl)-5-(2,4-dihydroxy-5-isopropylphenyl)-N-(2,2,2-trifluoroethyl)-4H-1,2,4-triazole-3-carboxamide, trifluoroacetic acid], the IC50 at 72 h in the data set on MV4-11 cells is less than 100 nM. In addition, the IC50 on BRD4 (BD1+BD2) and on HSP90α was 100 to 1000 nM throughout.

The molecule `Cc1sc2c(c1C)C(c1ccc(Cl)cc1)=N[C@@H](CC(=O)NCC1CCN(C(=O)C3CCN(Cc4ccc(-n5c(O)nnc5-c5cc(C(C)C)c(O)cc5O)cc4)CC3)C1)c1nnc(C)n1-2` (stereo partly drawn) [Compound 45, 2-((S)-4-(4-chlorophenyl)-2,3,9-trimethyl-6H-thieno[3,2-f][1,2,4]triazolo[4,3-a][1,4]diazepin-6-yl)-N-((1-(1-(4-(3-(2,4-dihydroxy-5-isopropylphenyl)-5-hydroxy-4H-1,2,4-triazol-4-yl)benzyl)piperidine-4-carbonyl)pyrrolidin-3-yl)methyl)acetamide, trifluoroacetic acid] returned an IC50 at 72 h in the data set on MV4-11 cells of less than 100 nM. The IC50 at BRD4 (BD1+BD2) and at HSP90α was less than 100 nM each time.

`CCc1cc(-c2nnc(O)n2-c2ccc(CN3CCC(C(=O)N4CCC(CNC(=O)C[C@@H]5N=C(c6ccc(Cl)cc6)c6c(sc(C)c6C)-n6c(C)nnc65)C4)CC3)cc2)c(O)cc1O` (stereo partly drawn) [Compound 77, 2-((6S)-4-(4-chlorophenyl)-2,3,9-trimethyl-6H-thieno[3,2-f][1,2,4]triazolo[4,3-a][1,4]diazepin-6-yl)-N-((1-(1-(4-(3-(5-ethyl-2,4-dihydroxyphenyl)-5-hydroxy-4H-1,2,4-triazol-4-yl)benzyl)piperidine-4-carbonyl)pyrrolidin-3-yl)methyl)acetamide, trifluoroacetic acid] registered an IC50 at 72 h with MV4-11 cells of 100 to 1000 nM. The results for the IC50 at BRD4 (BD1+BD2) and at HSP90α were less than 100 nM and 100 to 1000 nM, respectively.

`CC[C@@H](C)Nc1cc(C(=O)NC2C[C@H]3CC[C@H](C2)N3c2ccc(C(=O)c3ccc(CN4CCN(CC5CCN(C(=O)C[C@@H]6N=C(c7ccc(Cl)cc7)c7c(sc(C)c7C)-n7c(C)nnc76)CC5)CC4)cc3)cn2)c(C)cc1C(N)=O` (stereo partly drawn) [Compound 25, 5-(((R)-sec-butyl)amino)-N1-((1R,3r,5S)-8-(5-(4-((4-((1-(2-((S)-4-(4-chlorophenyl)-2,3,9-trimethyl-6H-thieno[3,2-f][1,2,4]triazolo[4,3-a][1,4]diazepin-6-yl)acetyl)piperidin-4-yl)methyl)piperazin-1-yl)methyl)benzoyl)pyridin-2-yl)-8-azabicyclo[3.2.1]octan-3-yl)-2-methylterephthalamide]: the IC50 at 72 h in the data set with MV4-11 cells was in the range of 100 to 1000 nM. Moreover, the results for the IC50 on BRD4 (BD1+BD2) and at HSP90α were 100 to 1000 nM and more than 1000 nM, respectively.

The values are drawn from patent US20220168427A1 (Ranok Therapeutics (Hangzhou) Co. Ltd., priority 2019, published 2022).
